# From patent US20250197373A1, “SMALL MOLECULE COMPOUND OR SALT THEREOF OR SOLVATE OF THEM, GUANINE NUCLEOTIDE-BINDING PROTEIN G(Q) SUBUNIT ALPHA (GNAQ) INHIBITOR CONTAINING THE SAME AND METHOD FOR TREATING AND/OR PREVENTING CANCER” (INDUSTRIAL TECHNOLOGY RESEARCH INSTITUTE, priority 2023, published 2025)
# Tests used:
# [1] = system: MDA-MB-231-OE-GNAQ (T96S); experiment: Inhibition of growth of triple-negative breast cancer cells MDA-MB-231-OE-GNAQ (T96S) (PrestoBlue); type: cell-based; conditions: Homo sapiens, 168 h, 7 days culture, 2% fetal bovine serum, read-out: Inhibitory activity (evaluated by IC50)
# Method: Triple-negative breast cancer cells, MDA-MB-231 and MDA-MB-231-OE-GNAQ (T96S) (additionally expressing GNAQ (T96S)) were cultured in L-15 medium and in a temperature-controlled incubator without need of additional offer of 5% carbon dioxide.
# 1×10^3 of the cells mentioned above were seeded in a 96-well plate, placed in a temperature-controlled incubator and cultured overnight (at least 16 hours).
# After overnight incubation, the supernatant was removed. Next, after 200 μL of cell culture medium (containing 2% fetal bovine serum) containing different concentrations of test compound was added to each well of the 96-well plate, the 96-well plate was placed in a 37° C. incubator for 7 days further culture. After that, an additional 30 μL of diluted PrestoBlue™ Cell Viability Reagent (Catalog Number: A13261; Thermo Fisher Scientific) (4 μL stock solution and 26 μL culture medium) was added to each well of the 96-well plate and the reaction was continued for further about 1 hour.
# Finally, the fluorescence value at the wavelength of 535/615 nm of each well was read with a plate enzyme immunoassay analyzer, and the inhibitory rate of the compound on triple-negative breast cancer cells were calculated using the following formula.
# Moreover, the half maximal inhibitory concentration (IC50) of the compound on the growth of triple-negative breast cancer cells was calculated with the inhibitory rate of compound on triple-negative breast cancer cells at each concentration through the online half maximal inhibitory concentration (IC50) calculation software, IC50 Calculator, provided by AAT Bioquest company on its website (https://www.aatbio.com/tools/ic50-calculator).
# Finally, the inhibition of the compound on the growth of triple-negative breast cancer cells was evaluated by the calculated half maximal inhibitory concentration (IC50) of the compound on the growth of triple-negative breast cancer cells.
# The inhibition of the compound on the growth of triple-negative breast cancer cells was evaluated by the half maximal inhibitory concentration (IC50) of the compound (one of Compound 1 to Compound 15 prepared above) on the growth of triple-negative breast cancer cells through the human triple-negative breast cancer cell lines MDA-MB-231 and MDA-MB-231-OE-GNAQ (T96S) (additionally expressing GNAQ (T96S)).
# [2] = system: MCF-7 cells; experiment: Inhibition of growth of mammary gland cancer cells MCF-7 (PrestoBlue); type: cell-based; conditions: Homo sapiens, MCF7, 168 h, 7 days culture, 2% fetal bovine serum, read-out: Inhibitory activity (evaluated by IC50)
# Method: Human mammary gland cancer cells, MCF-7 cells and MCF-7 GNAQ (T96S) cells (MCF-7 cells expressing GNAQ (T96S) after GNAQ gene deletion) were cultured in MEM medium.
# 1×10^3 of the cells mentioned above were seeded in a 96-well plate and cultured overnight (at least 16 hours) in a carbon dioxide incubator.
# After overnight incubation, the supernatant was removed. Next, after 200 μL of cell culture medium (containing 2% fetal bovine serum) containing different concentrations of test compound was added to each well of the 96-well plate, the 96-well plate was placed in a 5% carbon dioxide incubator at 37° C. for 7 days further culture. After that, an additional 30 μL of diluted PrestoBlue™ Cell Viability Reagent (Catalog Number: A13261; Thermo Fisher Scientific) (4 μL stock solution and 26 μL culture medium) was added to each well of the 96-well plate and the reaction was continued for further about 1 hour.
# Finally, the fluorescence value at the wavelength of 535/615 nm of each well was read with a plate enzyme immunoassay analyzer, and the inhibitory rate of the compound on mammary gland cancer cells were calculated using the following formula.
# Moreover, the half maximal inhibitory concentration (IC50) of the compound on the growth of mammary gland cancer cells was calculated with the inhibitory rate of the compound on mammary gland cancer cells at each concentration through the online half maximal inhibitory concentration (IC50) calculation software, IC50 Calculator, provided by AAT Bioquest company on its website (https://www.aatbio.com/tools/ic50-calculator).
# Finally, the inhibition of the compound on the growth of mammary gland cancer cells was evaluated by the calculated half maximal inhibitory concentration (IC50) of the compound on the growth of mammary gland cancer cells.
# The inhibition of the compound on the growth of breast cancer cells was evaluated by the half maximal inhibitory concentration (IC50) of the compound (one of Compound 1 to Compound 15 prepared above) on the growth of mammary gland cancer cells through the human mammary gland cancer cell line MCF-7 and the human mammary gland cancer cell line MCF-7 GNAQ (T96S) expressing the mutated gene.
SMILES,IC50 [1],IC50 [2]
O=C(Nc1cccc(-c2ccnc(-c3ccnc(Cl)c3)n2)c1)Nc1cc(Cl)nc(Cl)c1 [Compound 1],0.31 to 2.5 µM,0.31 to 2.5 µM
O=C(Nc1cccc(-c2ccnc(-c3cccc(C(F)(F)F)c3)n2)c1)Nc1cc(Cl)nc(Cl)c1 [Compound 2],0.31 to 2.5 µM,0.31 to 2.5 µM
N#Cc1cccc(-c2nccc(-c3cccc(NC(=O)Nc4cc(Cl)nc(Cl)c4)c3)n2)c1 [Compound 3],0.31 to 2.5 µM,0.31 to 2.5 µM
O=C(Nc1cccc(-c2ccnc(-c3ccc(F)c(F)c3)n2)c1)Nc1cc(Cl)nc(Cl)c1 [Compound 4],0.31 to 2.5 µM,0.31 to 2.5 µM
O=C(Nc1cccc(-c2ccnc(-c3cccc(C(F)(F)F)c3)n2)c1)c1cc(Cl)nc(Cl)c1 [Compound 5],0.31 to 2.5 µM,0.31 to 2.5 µM
O=C(Nc1ccc(-c2ccnc(-c3ccncc3)n2)cc1)Nc1ccc(Cl)c(C(F)(F)F)c1 [Compound 6],2.5 to 5 µM,0.31 to 2.5 µM
O=C(Nc1ccc(-c2ccnc(-c3cccc(C(F)(F)F)c3)n2)cc1)Nc1cc(Cl)nc(Cl)c1 [Compound 7],0.31 to 2.5 µM,0.31 to 2.5 µM
O=C(Nc1ccc(-c2ccnc(-c3cccc(C(F)(F)F)c3)n2)cc1)Nc1ccc(Cl)c(C(F)(F)F)c1 [Compound 8],0.31 to 2.5 µM,0.31 to 2.5 µM
O=C(Nc1ccc(-c2cccc(-c3cccc(C(F)(F)F)c3)n2)cc1)Nc1cc(Cl)nc(Cl)c1 [Compound 9],0.31 to 2.5 µM,0.31 to 2.5 µM

# The next lines start with the values.
IC50 [1],IC50 [2],SMILES
0.31 to 2.5 µM,0.31 to 2.5 µM,FC(F)(F)c1cccc(-c2cccc(-c3ccc(NC(=S)Nc4cc(Cl)nc(Cl)c4)cc3)n2)c1 [Compound 10]
0.31 to 2.5 µM,0.31 to 2.5 µM,N#Cc1cccc(-c2cccc(-c3ccc(NC(=S)Nc4cc(Cl)nc(Cl)c4)cc3)n2)c1 [Compound 11]
0.31 to 2.5 µM,0.31 to 2.5 µM,O=C(Nc1ccc(-c2cccc(-c3ccncc3)n2)cc1)Nc1ccc(Cl)c(C(F)(F)F)c1 [Compound 12]
0.31 to 2.5 µM,0.31 to 2.5 µM,O=C(Nc1cccc(-c2cccc(-c3ccncc3)n2)c1)Nc1cc(Cl)nc(Cl)c1 [Compound 13]
0.31 to 2.5 µM,< 0.31 µM,O=C(Nc1cccc(-c2cc(-c3cccc(C(F)(F)F)c3)ncn2)c1)Nc1cc(Cl)nc(Cl)c1 [Compound 14]
0.31 to 2.5 µM,< 0.31 µM,O=C(Nc1ccc(-c2nc(-c3ccccc3)ncc2Cl)cc1)Nc1cc(Cl)nc(Cl)c1 [Compound 15]
